Test [1] concerns L. major promastigote. The test is described as follows: Primary screening resazurin viability assay, L. major promastigotes. The class given is cell-based, Leishmania major. The settings on record: for EC50: Leishmania major, Fig. 1B, HTS format, promastigotes, read-out: EC50 of reference compound, L. major (black line); for Active compound selection in the 4,000-compound library screen: cut-off 70% proliferation inhibition at the lowest compound concentration (0.2–0.02 µM), duplicate, data not shown. As to the method: (§1) L. major MHOM/IL/81/FRIEDLIN and L. donovani MHOM/ET/67/HU3 promastigotes were cultivated at 28°C in axenic M199 culture medium (Welgene, S. Korea) supplemented with 10% heat-inactivated fetal bovine serum (FBS) (Gibco, United States) and 1% streptomycin/penicillin (Gibco, United States).
(§2) After compound addition to the assay plate (Evotec™ 384-well microplate, Germany), 20,000 L. major promastigote parasites from an exponential phase culture (∼10^7 parasites/mL) were diluted in M199, seeded in 50 µL per well using FlexDrop™ and incubated at 28°C for 28 hours, followed by the addition of 5 mM resazurin sodium salt (Sigma R7017, United States) and further incubation for 20 hours at 28°C. After a 48-hour exposure to compounds, the reference drug (EtBr) or control (1% DMSO), the parasites were fixed with 2% paraformaldehyde (PFA) and plates were read in Victor3™ (Perkin Elmer) at 530 nm (excitation) and 590 nm (emission). This fixation step is not necessary for resazurin readout, but allows flexibility in the automation schedule and increases assay robustness by decreasing metabolic variability between populations across wells and plates.
The effect of compounds on Leishmania viability was assessed by fluorometric measurement of resazurin reduction. […] Reference compounds for antileishmanial activity (EtBr, amphotericin B, miltefosine and paromomycin) were tested (Fig. 1B) as a step of the validation process. […] Assay validation was performed on three separate days using 33 microplates (384 wells/plate) containing only controls. […] After assay validation, we screened a 4,000-compound library containing a number of compounds with known pharmacological properties. […] This assay was done in duplicate and results of each concentration assay are represented as individual graphs in Fig. 1D.
(In general: Alamar Blue is a resazurin reagent that responds to reducing activity.)

The subject of test [2] is L. donovani promastigote. The test is described as follows: Resazurin viability assay, L. donovani promastigotes. The format is cell-based. The settings on record: Leishmania donovani, read-out: EC50 of reference compound, L. donovani (grey dashed line). As to the method:
as §1
as §2, with “plates. Z-factor, calculated as 1−(3×σp+3×σn)/(|μp−μn|), where μp, σp, μn and σn are the means (μ) and standard deviations (σ) of both the positive (p) and negative (n) controls, and other parameters, including DRC plates for verification of the reference drug EC50 (accepted if within the range of 3× higher or lower than a defined value from the literature), coefficient of variation not higher than 10% in the controls and edge effect evaluation, were used for screening validation and hits selection.” for “plates.”
Infection of human macrophage cells in vitro with Leishmania has been previously described as a suitable model for screening and was adopted for our purpose. The 124 active compounds selected from the secondary assay were tested in 10-point dose response with 2-fold serial dilutions starting from 20 µM against promastigotes and intracellular amastigotes of L. major and L. donovani infecting macrophages. The average Z-factor calculated per plate based on the reference drug (amphotericin B) and carrier (1% DMSO) was 0.62 for L. major infection and 0.59 for L. donovani infection, and minimum accepted Z-factor for the analysis was 0.5.

For test [3], the system named is L. major intracellular amastigotes. Kind of test: Intracellular amastigotes assay, L. major infecting THP-1 macrophages (image-based infection ratio). The format is cell-based. The following applies: Leishmania major, 96 h, intracellular amastigotes infecting THP-1 macrophages, 4 days incubation, read-out: L. major EC50 amastigote. As for the experimental part:
(§3) THP-1 cells were cultivated in suspension at a density of 10^5 to 10^6 cells/mL in RPMI (Gibco 1640, United States) medium supplemented with 10% heat-inactivated FBS and 1% streptomycin/penicillin at 37°C and 5% CO2. The differentiation of THP-1 into macrophages was induced by incubation of the cells for 48 hours with phorbol 12-myristate 13-acetate (PMA) at 50 ng/ml. For infection, late-stage L. major or L. donovani rich in metacyclic promastigotes was added to differentiated THP-1 cells (ratio of 50 parasites to 1 host cell) in Evotec™ 384-well microplates using a FlexDrop™ (Perkin Elmer) to dispense 50 µL/well. Compounds were added 24 hours after infection and microplates were incubated at 37°C and 5% CO2 for 4 days. Amphotericin B as the reference compound (positive control) at 10 µM as the EC100 and 1% DMSO (negative control) were used in all the plates for data normalization (see bellow). […] Microplates were read in an Opera confocal microscope (Perkin Elmer), enabling the determination of the infection ratio of the parasites by image analysis. […] The macrophage nuclei and internalized parasites were identified and counted if localized in the foreground previously selected (Figure S1). With this technique, extracellular parasites were not considered in the calculations, and the infection ratio was determined by the number of infected cells divided by the total number of cells after normalization based on the controls. The average infection ratios from the positive and negative controls were normalized to 0% and 100% infection, and the infection ratio read from each compound activity was proportionally distributed within this range. […]
(§4) Infection of human macrophage cells in vitro with Leishmania has been previously described as a suitable model for screening and was adopted for our purpose. […] The average Z-factor calculated per plate based on the reference drug (amphotericin B) and carrier (1% DMSO) was 0.62 for L. major infection and 0.59 for L. donovani infection, and minimum accepted Z-factor for the analysis was 0.5.

The test system of test [4] is L. donovani intracellular amastigotes. The test is described as follows: Intracellular amastigotes assay, L. donovani infecting THP-1 macrophages (image-based infection ratio). The settings on record: Leishmania donovani, 96 h, intracellular amastigotes infecting THP-1 macrophages, 4 days incubation, read-out: L. donovani EC50 amastigote. The format is cell-based. As to the method:
as §3, §4

The mark [5] stands for this setting: Fig. 1B, HTS format, promastigotes.

Where two headings read alike, the source gives them in different places.

One may read the EC50 as the concentration giving half of the maximal effect. For `CC[n+]1c(-c2ccccc2)c2cc(N)ccc2c2ccc(N)cc21` [EtBr, Ethidium bromide], the EC50 in test [1] stood at 14 nM; in test [2] it was 5 nM.

Regarding `C[C@@H]1[C@H](O)[C@@H](C)/C=C/C=C/C=C/C=C/C=C/C=C/C=C/[C@H](O[C@@H]2O[C@H](C)[C@@H](O)[C@H](N)[C@@H]2O)C[C@@H]2O[C@](O)(C[C@@H](O)C[C@@H](O)[C@H](O)CC[C@@H](O)C[C@@H](O)CC(=O)O[C@H]1C)C[C@H](O)[C@H]2C(=O)O` [amphotericin B, reference compound], the concentration for a half-maximal effect (EC50) was determined as 1060 nM in test [3], 3900 nM in test [1], 1300 nM in test [2] (setting [5]) and 820 nM in test [4].

Turning to `COc1ccc(C[C@H]2NC[C@H](O)[C@H]2OC(C)=O)cc1` [anisomycin], the “Active compound selection in the 4,000-compound library screen” value (from here on “Active compound selection”) in test [1] is recorded as “active”.

For `COc1ccc2cc3[n+](cc2c1OC)CCc1cc2c(cc1-3)OCO2` [berberine chloride], in test [1], the “Active compound selection” value was “active”.

In the case of `O=C1OCCN1/N=C/c1ccc([N+](=O)[O-])o1` [furazolidone], the “Active compound selection” value in test [1] was “active”.

In the case of `CCCCCCCCCCCCCCCCOP(=O)([O-])OCC[N+](C)(C)C` [miltefosine], the 50% effective concentration (EC50) in test [1] stood at 4700 nM; in test [2] (setting [5]) it was 2700 nM.

As to `CC1CS(=O)(=O)CCN1/N=C/c1ccc([N+](=O)[O-])o1` (centres unmarked) [nifurtimox], the “Active compound selection” value in test [1] is “active”.

For `NC(=O)N/N=C/c1ccc([N+](=O)[O-])o1` [nitrofural], in test [1], the “Active compound selection” value is “active”.

For the molecule `NC[C@@H]1O[C@H](O[C@H]2[C@@H](O)[C@H](O[C@@H]3[C@@H](O)[C@H](N)C[C@H](N)[C@H]3O[C@H]3O[C@H](CO)[C@@H](O)[C@H](O)[C@H]3N)O[C@@H]2CO)[C@H](N)[C@@H](O)[C@@H]1O` [paromomycin], the concentration for a half-maximal effect (EC50) in test [1] was found to be 62500 nM; in test [2] (setting [5]), 13000 nM.

On to `C=C1C(=O)O[C@H]2[C@H]1CC/C(C)=C/CC[C@@]1(C)O[C@@H]21` [parthenolide], for which the “Active compound selection” value in test [1] was “active”.

Consider `N=C(N)c1ccc(OCCCCCOc2ccc(C(=N)N)cc2)cc1` [pentamidine isethionate], for which the “Active compound selection” value in test [1] was “active”.

Values taken from PMC2864270 (PLoS Neglected Tropical Diseases, 2010).
